Key:
Format in all cases: cell-based
[1] = test system: Klebsiella pneumoniae (ATCC 4352); assay: Time-kill determination
Experimental: (§1) The assessment of efficacy of 9-decenoic acid against a spectrum of microorganisms was determined using the American Society for Testing and Materials (ASTM) procedure entitled “Standard Test Method for the Assessment of Microbiocidal Activity of Test Materials Using a Time-Kill Procedure,” October 1998. This procedure incorporates the recommendations described in the “Manual of Clinical Microbiology,” 5th ed., edited by A. B. Balows et al., ASM, Washington, and is directed by the Federal Register, June 1994.
(§2) Challenge organisms were prepared as follows. Cultures of the following organisms were obtained: Staphylococcus aureus (ATCC 6538), Pseudomonas aeruginosa (ATCC 15442), Staphylococcus epidermidis (ATCC 12228), Klebsiella pneumoniae (ATCC 4352), Escherichia coli 0157:H7 (ATCC 43895) and Candida albicans (ATCC 10231). The stock cultures were transferred to sterile tubes and sterile tryptic soy broth (TSB) was added to the cultures. The mixture was incubated for 18-24 hours at 37° C. (±2° C.). A portion of this culture was then transferred onto TSA plates and incubated for 18-24 hours at 37° C. (±2° C.). The plates were removed from incubation and the bacterial growth was washed from the agar surface using Butterfield's Phosphate Buffered Dilution Water (PBDW).
(§3) The bacterial suspension was adjusted to contain approximately 10^8 Colony Forming Units (CFU) per ml with PBDW. The concentration was adjusted to an optical density (OD) of 0.4-0.5 (versus a PBDW blank) at 620 nm in a UV-Vis spectrophotometer, and this optical density gave approximately 10^8 colony forming units per milliliter (cfu/ml). The standardized suspension was stored under appropriate conditions until it was used as the challenge inoculum.
(§4) Concentrated 9-decenoic acid (97%) was diluted in filter sterilized isopropanol to yield a 25,000 ppm stock solution. Subsequent dilutions to the 9-decenoic acid stock solutions were made with sterile Deionized Water (DI) to achieve concentrations of 0.1%, 0.05%, 0.01% and 0.001%. The pH was determined for each dilution; pH values ranged from 4.4-4.1. Additionally, 9-decenoic acid stock solution was adjusted to pH 7 with 1 N NaOH and serially diluted with sterile DI to achieve concentrations of 1%, 0.5%, 0.2%, 0.1%, 0.05% and 0.0025%. In addition, 9-decenoic acid stock solution was combined with Triclosan™ (obtained from Ciba Specialty Chemical Corporation, under the tradename Irgasan DP 300™) in various ratios, as indicated in Table 8. The pH of the combined solution was 7.
(§5) Compliant with the ASTM procedure cited, for each challenge microorganism a 9.9 ml aliquot of the prepared 9-decenoic acid suspension was added to a sterile tube. A 0.1 ml aliquot of the standardized inoculum was added to the 9-decenoic acid solution representing the start of the test exposure. The inoculated 9-decenoic acid solution was immediately mixed thoroughly. The inoculated suspension was held at room temperature for 0.5, 2, 5, 7 and 10-minute exposure times for tests run at pH level of approximately 4. The pH 7 tests were held at room temperature for 0.5 and 2 minutes.
(§6) At each exposure sample time, a 1.0 ml aliquot of the inoculated 9-decenoic acid suspension was transferred to 9.0 ml of D/E Neutralizing Broth. Additional ten-fold serial dilutions were made in PBDW and plated in duplicate on TSA. All plates were incubated for 48 hours at 37° C. (±2° C.) and visually examined for growth. The plates were enumerated, recorded and log kill determined for each time point.
(§7) The following study controls were conducted: culture purity, neutralizer sterility, initial suspension population, test population, neutralization verification and a negative control using isopropanol. Culture purity was verified by performing a streak plate for isolated colonies of each culture used. All cultures were determined to be pure based on consistent colony morphology typical for the test organism. The neutralizer sterility was confirmed by no growth in an incubated sample. […]

[2] = test system: Staphylococcus epidermidis (ATCC 12228); assay: Time-kill determination
Experimental: as §1, §2, §3, §4, §5, §6, §7

[3] = test system: Aspergillus oryzae (ATCC 10124); assay: MIC on Potato Dextrose Agar; details: PDA agar, 25-30° C.
Experimental: (§8) The efficacy of antimicrobial compositions in accordance with aspects of the invention against the following organisms was determined as follows. The following organisms were incubated in the presence of varying concentrations of 9-decenoic acid (9-DA) on an agar surface: Aspergillus parasiticus (ATCC 56857), Trichoderma virens (ATCC 9645), Aspergillus flavus (ATCC 96045), Cladosporium cladosporiodes (ATCC 16022), Aspergillus flavus (ATCC 5917), Aspergillus oryzae (ATCC 10124), Aspergillus parasiticus (ATCC 13539), Ulocladium atrum (ATCC 52426), Candida albicans (ATCC 11651), Aspergillus niger (ATCC 11414).
(§9) Fungal spores were hydrated in 0.1% Tween 80 and then plated onto Potato Dextrose Agar (PDA) (Difco # 213400; Becton, Dickinson and Company, Sparks, Md.) and incubated at 25-30° C. for six (6) days. The spores were washed from the surface with 5 ml of 0.1% Tween 80 and enumerated.
(§10) PDA plates were prepared according to the manufacturer's instructions through sterilization. The agar was tempered to approximately 50° C. and filter sterilized. Antimicrobial compositions containing 9-DA were added by percent weight to molten autoclaved PDA media, with consideration of specific gravity (0.915 g/mL for 9-DA) and purity (98% for 9-DA). The agar was thoroughly mixed and poured into sterile petri plates and allowed to solidify.
(§11) The agar plates were inoculated with the spore solution to achieve 10^2 spores/plate. The plates were incubated at 25-30° C. in Ziploc bags with a wet paper towel to keep the moisture level high. The plates were examined for growth at 1, 2, 3, 4, 8, 11, 15, 17, 23, 29 and 31 days. The percent coverage of growth on the agar surface was recorded at each sample point.

[4] = test system: Trichoderma virens (ATCC 9645); assay: MIC on Potato Dextrose Agar; details: PDA agar, 25-30° C.
Experimental: as §8, §9, §10, §11

[5] = 0.01% 9-decenoic acid, pH 4.4, exposure 0.5 min
[6] = 0.01% 9-decenoic acid, pH 4.4, exposure 2 min
[7] = 0.01% 9-decenoic acid, pH 4.4, exposure 5 min
[8] = 0.01% 9-decenoic acid, pH 4.4, exposure 7 min
[9] = 0.01% 9-decenoic acid, pH 4.4, exposure 10 min
[10] = 0.05% 9-decenoic acid, pH 4.1, exposure 0.5 min
[11] = 0.05% 9-decenoic acid, pH 4.1, exposure 2 min
[12] = 0.05% 9-decenoic acid, pH 4.1, exposure 5 min
[13] = 0.05% 9-decenoic acid, pH 4.1, exposure 7 min
[14] = 0.05% 9-decenoic acid, pH 4.1, exposure 10 min
[15] = 0.1% 9-decenoic acid, pH 4.1, exposure 0.5 min
[16] = 0.1% 9-decenoic acid, pH 4.1, exposure 2 min
[17] = 0.1% 9-decenoic acid, pH 4.1, exposure 5 min
[18] = 0.1% 9-decenoic acid, pH 4.1, exposure 7 min
[19] = 0.1% 9-decenoic acid, pH 4.1, exposure 10 min

C=CCCCCCCCC(=O)O [9-decenoic acid]
Log reduction [1, 5]: 1.4 log
Log reduction [1, 6]: >6.3 log
Log reduction [1, 7]: >6.3 log
Log reduction [1, 8]: >6.3 log
Log reduction [1, 9]: >6.3 log
Log reduction [1, 10]: >6.3 log
Log reduction [1, 11]: >6.3 log
Log reduction [1, 12]: >6.3 log
Log reduction [1, 13]: >6.3 log
Log reduction [1, 14]: >6.3 log
Log reduction [1, 15]: >6.3 log
Log reduction [1, 16]: >6.3 log
Log reduction [1, 17]: >6.3 log
Log reduction [1, 18]: >6.3 log
Log reduction [1, 19]: >6.3 log
Log reduction [2, 5]: >5.7 log
Log reduction [2, 6]: >5.7 log
Log reduction [2, 7]: >5.7 log
Log reduction [2, 8]: >5.7 log
Log reduction [2, 9]: >5.7 log
Log reduction [2, 10]: >5.7 log
Log reduction [2, 11]: >5.7 log
Log reduction [2, 12]: >5.7 log
Log reduction [2, 13]: >5.7 log
Log reduction [2, 14]: >5.7 log
Log reduction [2, 15]: >5.7 log
Log reduction [2, 16]: >5.7 log
Log reduction [2, 17]: >5.7 log
Log reduction [2, 18]: >5.7 log
Log reduction [2, 19]: >5.7 log
MIC [3]: 0.05%
MIC [4]: 0.05%

From US20080033026A1, “Antimicrobial compositions, methods and systems” (priority 2006, published 2008)
